Activity calls are given as the source filed them. The calls are words filed in the database; no cut-off is given here.
Tests used:
[1] = Effect on cleaved PARP level in human NCI-H146 cells assessed as relative expression at 100 nM measured after 10 days by Western blot analysis (reference value: 0.27); assay type: functional; conditions: time 10 day
NCI-H526 [2] = assay: In vivo inhibition of LSD1 in human NCI-H526 cells xenografted in nude mouse assessed as change in IGFBP2 gene expression administrated daily for 5 days by qRT-PCR analysis; assay type: functional, organism-based; conditions: dose 0.02-135 mg/kg, time 5.0 day
NCI-H1417 = assay: Antitumor activity against human NCI-H1417 cells xenografted in nude mouse assessed as mean tumor volume at 1.5 mg/kg, po administered daily measured twice weekly (reference value: 2262 +/- 299 mm3); assay type: functional
[3] = Effect on cleaved PARP level in human NCI-H1694 cells assessed as relative expression at 1000 nM measured after 10 days by Western blot analysis (reference value: .31); assay type: functional; conditions: time 10 day
[4] = Effect on cleaved PARP level in human NCI-H69 cells assessed as fold change at 10 nM measured after 14 days by Western blot analysis (reference value: 1.00); assay type: functional; conditions: time 14 day
[5] = Effect on cleaved PARP level in human NCI-H524 cells assessed as fold change at 100 nM measured after 7 days by Western blot analysis (reference value: 1.00); assay type: functional; conditions: time 7 day
[6] = Effect on cleaved PARP level in human NCI-H510 cells assessed as fold change at 100 nM measured after 10 days by Western blot analysis (reference value: 1.00); assay type: functional, NCI-H510A; conditions: time 10 day
[7] = Effect on cleaved PARP level in human NCI-H1417 cells assessed as relative expression at 100 nM measured after 14 days by Western blot analysis (reference value: 0.38); assay type: functional; conditions: time 14 day
[8] = Effect on cleaved PARP level in human NCI-H889 cells assessed as relative expression at 10 nM measured after 10 days by Western blot analysis (reference value: 0.33); assay type: functional; conditions: time 10 day
NCI-H146 = assay: Effect on NCAM gene expression in human NCI-H146 cells at 1 uM measured after 4 days by qRT-PCR analysis; assay type: functional, cell-based; conditions: time 4.0 day
[9] = Effect on cleaved PARP level in human COLO-668 cells assessed as relative expression at 100 nM measured after 14 days by Western blot analysis (reference value: 3.50); assay type: functional; conditions: time 14 day
[10] = Effect on cleaved PARP level in human NCI-H146 cells assessed as fold change at 10 nM measured after 10 days by Western blot analysis (reference value: 1.00); assay type: functional; conditions: time 10 day
[11] = Effect on cleaved PARP level in human NCI-H69 cells assessed as relative expression at 10 nM measured after 14 days by Western blot analysis (reference value: 0.03); assay type: functional; conditions: time 14 day
SHP77 [12] = assay: Effect on NCAM gene expression in human SHP77 cells at 1 uM measured after 4 days by qRT-PCR analysis; assay type: functional, cell-based; conditions: time 4.0 day
[13] = Toxicity in mouse xenografted with human NCI-H1417 cells assessed as grooming behaviour at 1.5 mg/kg, po administered daily measured for 30 days; assay type: organism-based; conditions: in vivo, 720 h, time 30 day
[14] = Effect on cleaved PARP level in human NCI-H146 cells assessed as relative expression at 10 nM measured after 14 days by Western blot analysis (reference value: 2.42); assay type: functional; conditions: time 14 day
[15] = Effect on cleaved PARP level in human NCI-H526 cells assessed as relative expression at 1000 nM measured after 10 days by Western blot analysis (reference value: 0.81); assay type: functional; conditions: time 10 day
[16] = Effect on cleaved PARP level in human NCI-H510 cells assessed as relative expression at 1000 nM measured after 7 days by Western blot analysis (reference value: 0.24); assay type: functional, NCI-H510A; conditions: time 7 day
COLO-668 = assay: Effect on NCAM gene expression in human COLO-668 cells at 1 uM measured after 4 days by qRT-PCR analysis; assay type: functional, cell-based; conditions: time 4.0 day
[17] = Effect on cleaved PARP level in human NCI-H1417 cells assessed as fold change at 100 nM measured after 10 days by Western blot analysis (reference value: 1.00); assay type: functional; conditions: time 10 day
SHP77 [18] = assay: Antitumor activity against human SHP77 cells xenografted in nude mouse assessed as tumor growth inhibition at […] mg/kg, po administered daily measured twice weekly relative to control; assay type: functional; conditions: read-out: TGI
[19] = Effect on cleaved PARP level in human NCI-H1694 cells assessed as fold change at 1000 nM measured after 14 days by Western blot analysis (reference value: 1.00); assay type: functional; conditions: time 14 day
[20] = Toxicity in rat assessed as suppression of platelet in bone marrow measured for 28 days; assay type: cell-based; conditions: 672 h, time 28 day
NCI-H526 [21] = assay: In vivo inhibition of LSD1 in human NCI-H526 cells xenografted in nude mouse assessed as change in LIX1L gene expression measured after 24 hrs post single administration by qRT-PCR analysis; assay type: functional, organism-based; conditions: dose 0.06-135 mg/kg
[22] = Effect on cleaved PARP level in human NCI-H1694 cells assessed as relative expression at 10 nM measured after 14 days by Western blot analysis (reference value: 0.25); assay type: functional; conditions: time 14 day
[23] = Effect on cleaved PARP level in human COLO-668 cells assessed as fold change at 100 nM measured after 10 days by Western blot analysis (reference value: 1.00); assay type: functional; conditions: time 10 day
[24] = Effect on cleaved PARP level in human NCI-H1694 cells assessed as fold change at 10 nM measured after 10 days by Western blot analysis (reference value: 1.00); assay type: functional; conditions: time 10 day
[25] = Effect on cleaved PARP level in human NCI-H1417 cells assessed as relative expression at 10 nM measured after 10 days by Western blot analysis (reference value: 0.19); assay type: functional; conditions: time 10 day
[26] = Effect on cleaved PARP level in human NCI-H2171 cells assessed as fold change at 10 nM measured after 14 days by Western blot analysis (reference value: 1.00); assay type: functional; conditions: time 14 day
[27] = Effect on cleaved PARP level in human NCI-H889 cells assessed as fold change at 10 nM measured after 14 days by Western blot analysis (reference value: 1.00); assay type: functional; conditions: time 14 day
[28] = Effect on cleaved PARP level in human NCI-H2171 cells assessed as fold change at 1000 nM measured after 14 days by Western blot analysis (reference value: 1.00); assay type: functional; conditions: time 14 day
[29] = Effect on cleaved PARP level in human NCI-H69 cells assessed as fold change at 1000 nM measured after 10 days by Western blot analysis (reference value: 1.00); assay type: functional; conditions: time 10 day
[30] = AUC (0 to last) in mouse tumor at 5 mg/kg, po by HPLC/MS/MS analysis; assay type: ADME, organism-based, Neoplasm
NCI-H69 = assay: Antitumor activity against human NCI-H69 cells xenografted in nude mouse assessed as tumor growth inhibition at 0.5 mg/kg, po administered daily measured twice weekly relative to control; assay type: functional; conditions: read-out: TGI
[31] = Effect on cleaved PARP level in human COLO-668 cells assessed as relative expression at 10 nM measured after 7 days by Western blot analysis (reference value: […]); assay type: functional; conditions: time 7 day
[32] = Toxicity in rat assessed as suppression of erythroid maturation in bone marrow measured for 28 days; conditions: in vivo, 672 h, time 28 day

For `O=C(O)c1ccc(CN2CCC(CN[C@@H]3C[C@H]3c3ccccc3)CC2)cc1` [GSK2879552], which Activity [1] is on record?
Its Activity is 0.25.

And the inhibition (NCI-H526 [2])?
The inhibition was “Dose-Dependent Effect”.

And the Activity (NCI-H1417)?
Its Activity is 546 mm3.

What about the Activity [3] of the same compound?
The Activity was 0.22.

And the “fold change (FC)” value [4]?
The value was 1.66.

What about the “fold change (FC)” value [5] of the same compound?
Its value is 0.95.

And the “fold change (FC)” value [6]?
Its value is 9.72.

And the Activity [7]?
The Activity was 0.32.

What about the Activity [8] of the same compound?
Its Activity is 0.55.

And the Activity (NCI-H146)?
Its Activity is “inactive”.

What about the Activity [9] of the same compound?
Its Activity is 0.89.

And the “fold change (FC)” value [10]?
The value was 1.24.

And the Activity [11]?
The Activity was 0.05.

What about the Activity (SHP77 [12]) of the same compound?
The Activity was “inactive”.

What about the Activity [13] of the same compound?
The Activity was “Non-Toxic”.

What about the Activity [14] of the same compound?
Its Activity is 1.54.

What about the Activity [15] of the same compound?
The Activity was 1.15.

And the Activity [16]?
Its Activity is 0.48.

What about the Activity (COLO-668) of the same compound?
Its Activity is “inactive”.

What about the “fold change (FC)” value [17] of the same compound?
Its value is 2.14.

And the inhibition in vivo at 1.25 mg/kg (SHP77 [18])?
Its inhibition in vivo at 1.25 mg/kg is 17%.

And the “fold change (FC)” value [19]?
Its value is 0.84.

And the Activity [20]?
Its Activity is “Toxic”.

And the inhibition (NCI-H526 [21])?
The inhibition was “Dose-Dependent Effect”.

What about the Activity [22] of the same compound?
The Activity was 0.22.

And the “fold change (FC)” value [23]?
Its value is 0.69.

And the “fold change (FC)” value [24]?
The value was 0.88.

And the Activity [25]?
Its Activity is 0.27.

What about the “fold change (FC)” value [26] of the same compound?
The value was 0.9.

And the “fold change (FC)” value [27]?
The value was 1.84.

And the “fold change (FC)” value [28]?
The value was 2.4.

What about the “fold change (FC)” value [29] of the same compound?
The value was 2.5.

And the AUC(0-t) [30]?
Its AUC(0-t) is 2320 ng·h/mL.

And the inhibition in vivo at 0.5 mg/kg (NCI-H69)?
The inhibition in vivo at 0.5 mg/kg was 51%.

What about the Activity [31] of the same compound?
Its Activity is 1.07.

And the Activity [32]?
Its Activity is “Toxic”.
